The test system of assay [1] is Avian myeloblastosis virus. Description: Inhibition of AMV reverse transcriptase activity assessed as DNA synthesis treated at 100 uM after 5 mins of initiation of DNA synthesis.
The species named for assay [2] is Bos taurus. Description: Inhibition of calf thymus DNA polymerase-alpha activity using activated calf thymus DNA at 10 uM.
Assay [3] concerns Avian myeloblastosis virus. Description: Inhibition of AMV reverse transcriptase activity assessed as incorporation of dTMP in poly(rA)-oligo(dT) at 100 uM. Further details: scale not given: the % may be the effect or the level left.
The subject of assay [4] is Avian myeloblastosis virus. The assay is described as follows: Inhibition of AMV reverse transcriptase activity assessed as incorporation of dTMP in poly(rA)-oligo(dT) at 0.1 uM. On the set-up: scale not given: the % may be the effect or the level left.
Assay [5] deals with Avian myeloblastosis virus. The assay is described as follows: Inhibition of AMV reverse transcriptase activity assessed as incorporation of dTMP in poly(rA)-oligo(dT) at 1 uM. On the set-up: scale not given: the % may be the effect or the level left.
The subject of assay [6] is Avian myeloblastosis virus. Description: Inhibition of AMV reverse transcriptase activity assessed as incorporation of dGMP in poly(rC)-oligo(dG) at 100 uM. On the set-up: scale not given: the % may be the effect or the level left.
Assay [7] concerns Avian myeloblastosis virus. Description: Inhibition of AMV reverse transcriptase activity assessed as incorporation of dGMP in poly(rC)-oligo(dG) at 10 uM. Further details: scale not given: the % may be the effect or the level left.
Assay [8] relates to Avian myeloblastosis virus. The assay is described as follows: Inhibition of AMV reverse transcriptase activity assessed as incorporation of dTMP in poly(rA)-oligo(dT) at 10 uM. On the set-up: scale not given: the % may be the effect or the level left.
In assay [9] the test system is Avian myeloblastosis virus. The assay is described as follows: Inhibition of AMV reverse transcriptase activity assessed as incorporation of dGMP in poly(rC)-oligo(dG) at 0.1 uM. Further details: scale not given: the % may be the effect or the level left.
Assay [10] relates to Avian myeloblastosis virus. The assay is described as follows: Inhibition of AMV reverse transcriptase activity assessed as incorporation of dTMP in poly(rA)-oligo(dT) at 1000 uM. On the set-up: scale not given: the % may be the effect or the level left.
For assay [11], the system named is Avian myeloblastosis virus. The assay is described as follows: Inhibition of AMV reverse transcriptase activity assessed as incorporation of dGMP in poly(rC)-oligo(dG) at 1 uM. On the set-up: scale not given: the % may be the effect or the level left.
Assay [12] relates to Avian myeloblastosis virus. The assay is described as follows: Inhibition of AMV reverse transcriptase activity assessed as incorporation of dGMP in poly(rC)-oligo(dG) at 1000 uM. Further details: scale not given: the % may be the effect or the level left.
Assay [13] is filed under the species Bos taurus. Description: Inhibition of calf thymus DNA polymerase-alpha activity using activated calf thymus DNA at 1000 uM.

Experimental findings from ChEMBL document CHEMBL1151661, “Inhibitory effect of tannins on reverse transcriptase from RNA tumor virus” (J Nat Prod, 1985) are described below.

The source made the active and inactive calls. The rule behind the calls is not given here.

Take `O=C1O[C@H]2[C@@H]3OC(=O)c4cc(O)c(O)c(O)c4-c4c(cc(O)c(O)c4O)C(=O)OC[C@H]2O[C@@H](OC(=O)c2cc(O)c(O)c(O)c2)[C@@H]3OC(=O)c2cc(O)c(O)c3c2[C@@H]2C1=CC(=O)[C@](O)(O3)C2(O)O`: the outcome (in assay [1]; in the assay listed under Bos taurus [13]) was Active. Moreover, the outcome in the assay listed under Bos taurus [2] was inactive. Moreover, the Activity in [3] was 6%; in assay [4], 89%; in assay [5], 39%; in assay [6] it was 15%; in assay [7] it was 62%; in assay [8], 12%. For the same compound, the Activity came to 103% in assay [9], 6% in assay [10], 93% in assay [11] and 12% in assay [12].
As to `O=C(O[C@H]1O[C@@H]2COC(=O)c3cc(O)c(O)c(O)c3-c3c(cc(O)c(O)c3O)C(=O)O[C@H]2[C@@H]2OC(=O)c3cc(O)c(O)c(O)c3-c3c(cc(O)c(O)c3O)C(=O)O[C@@H]12)c1cc(O)c(O)c(Oc2c(C(=O)O[C@H]3O[C@@H]4COC(=O)c5cc(O)c(O)c(O)c5-c5c(cc(O)c(O)c5O)C(=O)O[C@H]4[C@@H]4OC(=O)c5cc(O)c(O)c(O)c5-c5c(cc(O)c(O)c5O)C(=O)O[C@@H]34)cc(O)c(O)c2O)c1`, the Activity in [3] amounted to 19%; in assay [4], 86%; in assay [5] it was 27%; in [6] it was 5%; in assay [7], 7%; in assay [8], 20%. For the same compound, the Activity in [9] came out at 80%; in assay [10], 2%; in assay [11], 68%; in assay [12], 6%.
As to `O=C1OC[C@H]2OC(O)[C@@H]3OC(=O)c4cc(O)c(O)c(O)c4-c4c(cc(O)c(O)c4O)C(=O)O[C@H]3[C@@H]2OC(=O)c2cc(O)c(O)c(O)c2-c2c1cc(O)c(O)c2O` (stereo partly drawn), the Activity turned out to be 17% in [3]; 88% in assay [4]; 51% in assay [5]; 7% in [6]; 41% in assay [7]; 15% in [8]. For the same compound, the Activity in [9] is 80%; in [10], 4%; in [11], 73%; in assay [12] it was 10%.
